Data on 6 compounds can be found in patent publication US20030060511A1, “Method for treatment of ocular hypertension and glaucoma” (SUCAMPO AG, priority 2001, published 2003).

The test system of assay [1] is IOP in Normal Monkeys. Description: IOP in normal monkeys after single topical application of eye drops, saline in the other eye (Example 2). Format: in vivo, cynomolgus monkeys. To be noted: 0.005% eye drops, 30 μL/eye, IOP measured up to 24 hours, compared to saline eye. The method, then: Male cynomolgus monkeys (eight monkeys, body weights 3.0-4.5 kg) were used. To the right eyes of the monkeys, 30 μL/eye of 0.005% 13,14-dihydro-15-keto-18-phenyl-19,20-dinor-PGF2α-isopropyl ester eye drops or 0.005% 13,14-dihydro-15-keto-17-phenoxy-18,19,20-trinor-PGF2α-isopropyl ester eye drops were administered, and to the left eyes, 30 μL/eye of saline was administered. IOP of the animals were determined.
The animals were retained in the sitting position under systemic anesthesia with intramuscular injection of ketamine hydrochloride (Ketalar® 50, Sankyo Co. Ltd.) 7.5-10 mg/kg and their ocular surfaces were anesthetized with 0.4% oxybuprocaine hydrochloride (Benoxil® 0.4% solution, Santen Pharmaceuticals Co., Ltd.). After that, the IOP was measured with a pneumatonometer (Model 30 Classic, Mentor O & O, Inc.). The IOPs were measured before (0 hour) and at 2, 4, 8, 12 and 24 hours after the administration of test substances.
Changes of the IOP from that of time 0 (ΔIOP) obtained in the each test eyes ([…] eyes) were compared to those obtained in the vehicle administrated eyes (control group) at each measurement times.

Assay [2] concerns IOP in Normal Monkeys. The assay can be described thus: IOP in normal monkeys after single topical application of eye drops (Example 1). The class given is in vivo, cynomolgus monkeys. To be noted: for IOP lowering (change in IOP from time 0, ΔIOP): single administration, significant vs vehicle control (Dunnett's test). How it is done: Male cynomolgus monkeys (eight monkeys, body weights 3.0-4.5 kg) were used. To the right eyes of the monkeys, 30 μL/eye of 0.005% 13,14-dihydro-15-keto-17-phenyl-18,19,20-trinor-PGF2α-isopropyl ester eye drops, 0.005% 13,14-dihydro-17-phenyl-18,19,20-trinor-PGF2α-isopropyl ester (latanoprost) eye drops or the vehicle was administered once with an interval of at least seven days, and the IOPs in the respective animals was measured.
The animals were retained in the sitting position under systemic anesthesia with intramuscular injection of ketamine hydrochloride (Ketalar® 50, Sankyo Co. Ltd.) 7.5-10 mg/kg and their ocular surfaces were anesthetized with 0.4% oxybuprocaine hydrochloride (Benoxil® 0.4% solution, Santen Pharmaceuticals Co., Ltd.). After that, the IOP was measured with a pneumatonometer (Model 30 Classic, Mentor O & O, Inc.). The IOP was measured before (0 hour) and at 2, 4, 8, 12 and 24 hours after the administration of the test substances.
Changes of the IOP from that of time 0 (ΔIOP) obtained in the each test groups were compared to that obtained in the vehicle-administered control group at each measurement times. Statistical analysis was made with the Dunnett's multiple comparison test. Critical rates less than 5% were evaluated to be statistically significant.

The next assay addresses FP receptor (Homo sapiens, UniProt P43088). The settings on record: background art; cited from earlier work.

Sequence of FP receptor (P43088 whole entry): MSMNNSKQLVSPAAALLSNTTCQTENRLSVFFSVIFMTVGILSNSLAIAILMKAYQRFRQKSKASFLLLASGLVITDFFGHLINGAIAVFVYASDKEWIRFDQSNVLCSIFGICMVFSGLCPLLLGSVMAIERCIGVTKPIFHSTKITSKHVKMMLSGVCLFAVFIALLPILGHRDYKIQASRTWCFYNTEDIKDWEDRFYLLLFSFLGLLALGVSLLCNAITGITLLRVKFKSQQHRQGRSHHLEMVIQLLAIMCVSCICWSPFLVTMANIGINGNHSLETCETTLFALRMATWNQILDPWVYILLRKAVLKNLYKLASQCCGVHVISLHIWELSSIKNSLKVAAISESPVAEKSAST

Consider `CC(C)OC(=O)CCC/C=C\CC1C(O)CC(O)C1CCC(=O)CCOc1ccccc1` (stereo not drawn) [13,14-dihydro-15-keto-17-phenoxy-18,19,20-trinor-PGF2α-isopropyl ester], for which the “Duration of IOP lowering by single administration” value (shortened to “Duration of IOP lowering”) in the assay with IOP in Normal Monkeys [1] was “can lower the IOP and keep the low IOP throughout a day”.
For the compound `CC(C)OC(=O)CCC/C=C\C[C@@H]1[C@@H](CCC(=O)CCc2ccccc2)[C@H](O)C[C@@H]1O` [13,14-dihydro-15-keto-17-phenyl-18,19,20-trinor-PGF2α-isopropyl ester], the “Difference of ΔIOPs versus latanoprost group” value with IOP in Normal Monkeys [2] (0.005% eye drops each, at any time point of the measurement (2-24 hours)) is “no significant difference”. For the same compound, the “Duration of IOP lowering” value in the assay with IOP in Normal Monkeys [2] (0.005% eye drops, 30 μL/eye, IOP measured up to 24 hours) is “can lower the IOP and keep the low IOP throughout the day”. Also, the “IOP lowering (change in IOP from time 0, ΔIOP)” value with IOP in Normal Monkeys [2] (0.005% eye drops, 30 μL/eye, 4 hours after administration) was 2.3±0.4 mmHg; in the assay with IOP in Normal Monkeys [2] (0.005% eye drops, 30 μL/eye, 8 hours after administration), 2.1±0.4 mmHg; in the assay on IOP in Normal Monkeys [2] (0.005% eye drops, 30 μL/eye, 12 hours after administration) it was 2.4±0.5 mmHg.
In the case of `CC(C)OC(=O)CCC/C=C\CC1C(O)CC(O)C1CCC(=O)CCCc1ccccc1` (stereo not drawn) [13,14-dihydro-15-keto-18-phenyl-19,20-dinor-PGF2α-isopropyl ester], the “Duration of IOP lowering” value with IOP in Normal Monkeys [1] is “can lower the IOP and keep the low IOP throughout a day”.
In the case of `CCCCC[C@H](O)/C=C/[C@@H]1[C@@H](C/C=C\CCCC(=O)O)[C@@H](O)C[C@H]1O` [PGF2α], the “Affinity with / effect on FP receptor” value at FP receptor was “strong affinity”.
Take `CCCCCCCC(=O)CC[C@@H]1[C@@H](C/C=C\CCCC(=O)OC(C)C)[C@@H](O)C[C@H]1O` [isopropyl unoprostone, 13,14-dihydro-15-keto-20-ethyl-PGF2α-isopropyl ester]: at FP receptor, the “Affinity with / effect on FP receptor” value is listed as “substantially no effect”.
For `CC(C)OC(=O)CCC/C=C\C[C@@H]1[C@@H](CC[C@@H](O)CCc2ccccc2)[C@H](O)C[C@@H]1O` [latanoprost, 13,14-dihydro-17-phenyl-18,19,20-trinor-PGF2α-isopropyl ester], the “Affinity with / effect on FP receptor” value on FP receptor is on record as “strong affinity”.
